{
  "source": "patent US11607421B2",
  "about": "“Ethanolamine-based lipid biosynthetic compounds, method of making and use thereof” (Metanoi Therapeutics, Inc., priority 2016, dated 2023)",
  "key": {"[1]": {"experiment": "Pharmacokinetic studies, single oral and intravenous dose", "assay_type": "in vivo, BALB/c mice", "description": "Samples (100 μl) were drawn at 0, 15, 30 and 60 min from SGF reaction-vials and at 0, 30, 60 and 120 min from SIF reaction-vials, quenched with acetonitrile, vortex-mixed, and centrifuged before supernatant analysis by LC-MS/MS analysis. […] For PK studies, a sparse sampling design with 3 mice per time point was used to collect blood samples at 5, 10, 15, 30 min and 1, 2, 3, 4, 5 and 6 h in K2EDTA-coated tubes. The pharmacokinetic parameters (AUClast, Cmax, CL and Vss) were calculated using non-compartmental analysis tool of Phoenix WinNonlin software (version 6.3).\nNine animals per group were used for PK studies. A sparse sampling design was used to collect blood samples from animals at 5 min, 10 min, 15 min, 30 min, 1, 2, 3, 4, 5, and 6 h in K2EDTA coated tubes. Plasma was collected from blood by centrifugation of samples at 8000 g for 10 min. Plasma samples were stored below −60° C. until further analysis.\nPK parameters were calculated from the concentration-time data using the non-compartmental analysis tool of Phoenix WinNolin® software (version 6.3, Pharsight, St Louis, Mo.). The area under the concentration time curve (AUClast) was calculated by the linear trapezoidal rule. Following oral administration, peak concentration (Cmax) and time for the peak concentration (Tmax) were the observed values. The clearance (CL) and volume of distribution (Vss) were estimated following IV dose administration. The elimination rate constant value (k) was obtained by linear regression of the log-linear terminal phase of the concentration-time profile using at least three declining concentrations in terminal phase with a correlation coefficient of >0.8. The terminal half-life value (T1/2) was calculated using the equation ln 2/k. Oral bioavailability was calculated by taking the ratio of dose normalized AUClast following oral administration to IV administration."}, "[2]": {"test_system": "p53, p21, Bax, pBcl-2, c-PARP, Bim, Bid, HIF1-α", "experiment": "Immunoblot of PC-3-luc tumor lysates", "assay_type": "in vivo, mice", "description": "(§1) OCR was measured using an oxygen electrode.\nSince p21, Bax and pBcl2 are downstream effectors of p53, p53 expression levels were examined in control and Etn-treated tumors, as well as control and Etn-treated PC-3 cells.\n(§2) To test this hypothesis, HIF1-α expression levels were analyzed in Etn-treated tumors and PC-3 cells. […] DMOG, an HIF1-α activator, was then employed to test whether Etn-mediated cell death in PC-3 cells was associated with HIF1-α stabilization (active HIF1-α signaling).\nProteins were resolved by polyacrylamide gel electrophoresis and transferred onto polyvinylidene difluoride membranes (Millipore, Billerica, Mass., USA). The membranes were blocked in Tris-buffered saline containing 0.05% Tween-20 and 5% fat-free dry milk and incubated first with primary antibodies and then with horseradish peroxidase-conjugated secondary antibodies. Specific proteins were visualized with enhanced chemiluminescence detection reagent according to the manufacturer's instructions (Pierce Biotechnology, Rockford, Ill., USA)."}, "PC-3 cells": {"test_system": "PC-3 cells", "experiment": "Glucose and glutamine contents in cultured cells (LC-MS/MS)", "conditions": "2 mg/ml Etn for 48 h vs control cells"}, "DU145": {"test_system": "DU145", "experiment": "DU145 prostate tumor xenograft", "conditions": "40 mg/kg Etn, oral gavage, 4 weeks"}, "[3]": {"test_system": "p21, PARP1, Bcl-2, HIF1-α, Bax and Bid", "experiment": "Real time-PCR transcription levels", "assay_type": "cell-based, human", "conditions": "PC-3 cells, 2 mg/ml Etn for 48 h", "description": "as §1, §2\nRNA was extracted from control and 2 mg/ml Etn-treated PC-3 cells using a RNeasy kit from Qiagen (Hilden, Germany), and quantified using NanoDrop. Reverse transcription of RNA was performed for the first strand cDNA synthesis using a first strand synthesis kit (GoScript™ Reverse Transcription System-A5000) from Promega (Madison, Wis.). The quality of synthesized cDNAs was checked on an agarose gel. RT-PCR of cDNA samples (in duplicates) was performed using iQ™ SYBR® Green Supermix from Bio-Rad (Hercules, Calif.) as per manufacturer's instructions. The RT-PCR primers were designed manually, checked with the primer3 software and ordered from Sigma (St Louis, Mo.)."}, "C4-2B": {"test_system": "C4-2B", "experiment": "MTT cell proliferation assay", "assay_type": "cell-based", "conditions": "0.5 mg/ml Etn, 48 h; range given for PC-3, DU145 and C4-2B together", "description": "(§3) After 48 h, drug containing medium was replaced by medium containing MTT (tetrazolium bromide) at a concentration of 0.5 mg/ml. The yellow tetrazolium salt is reduced to insoluble purple formazan by viable cells. After 4 h of incubation in dark, formazan crystals produced by viable cells were dissolved by 200 μl DMSO and the amount of formazan crystals formed was quantified by recording the absorbance at 570 nm using multi-well plate reader. […] After 10 days, colonies were fixed with 4% formaldehyde, stained with crystal violet and counted."}, "OVCAR-5": {"test_system": "OVCAR-5", "experiment": "MTT cell proliferation assay", "assay_type": "cell-based", "conditions": "Homo sapiens, 48 h, pH 7.4", "description": "as §3"}, "MDA-MB-468": {"test_system": "MDA-MB-468", "experiment": "MTT cell proliferation assay", "assay_type": "cell-based", "conditions": "Homo sapiens, 48 h, pH 7.4", "description": "as §3"}, "CFPAC-1": {"test_system": "CFPAC-1", "experiment": "MTT cell proliferation assay", "assay_type": "cell-based", "conditions": "Homo sapiens, 48 h, pH 7.4", "description": "as §3"}, "[4]": {"set-up": "species or system BALB/c mice", "conditions": "mouse, in vivo, 40 mg/kg", "description": "Mice were sacrificed after 24, 48 h and 1, 2, 3, 4 weeks and spleens were collected. Total splenocytes were counted after lysis of RBC with RBC lysis buffer. After this, splenocytes where incubated with anti-CD16/CD32 antibody to block Fc receptors and then labeled with anti-CD3-APC, anti-CD4-Alexa488, anti-CD8-Alexa488, anti-DX5-FITC, or anti-CD19-FITC antibodies according to the manufacturer's instructions. Labeled cells were analyzed by flow cytometry using an LSRFortessa Flow cytometer (BD Biosciences, CA). Data from this analysis was analyzed using FlowJo software (TreeStar, OR)."}, "CYP2C19": {"target": "CYP2C19 (Homo sapiens, UniProt P33261)", "sequence (P33261 whole entry)": "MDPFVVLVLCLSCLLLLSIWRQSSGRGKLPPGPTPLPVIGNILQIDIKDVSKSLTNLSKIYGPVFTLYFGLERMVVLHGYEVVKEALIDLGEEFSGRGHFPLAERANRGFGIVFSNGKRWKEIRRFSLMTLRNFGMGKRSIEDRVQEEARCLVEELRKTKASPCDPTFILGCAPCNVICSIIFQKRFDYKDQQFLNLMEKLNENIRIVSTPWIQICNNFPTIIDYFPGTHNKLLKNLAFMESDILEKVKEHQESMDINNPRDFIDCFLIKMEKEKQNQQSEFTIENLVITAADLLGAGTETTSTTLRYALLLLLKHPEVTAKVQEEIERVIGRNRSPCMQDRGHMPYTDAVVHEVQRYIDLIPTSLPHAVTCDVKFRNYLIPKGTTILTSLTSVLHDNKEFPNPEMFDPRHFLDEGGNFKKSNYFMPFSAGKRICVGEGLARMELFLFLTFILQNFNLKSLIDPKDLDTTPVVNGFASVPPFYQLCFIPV", "experiment": "CYP inhibition in human liver microsomes"}, "CYP1A2": {"target": "CYP1A2 (Homo sapiens, UniProt P05177)", "sequence (P05177 whole entry)": "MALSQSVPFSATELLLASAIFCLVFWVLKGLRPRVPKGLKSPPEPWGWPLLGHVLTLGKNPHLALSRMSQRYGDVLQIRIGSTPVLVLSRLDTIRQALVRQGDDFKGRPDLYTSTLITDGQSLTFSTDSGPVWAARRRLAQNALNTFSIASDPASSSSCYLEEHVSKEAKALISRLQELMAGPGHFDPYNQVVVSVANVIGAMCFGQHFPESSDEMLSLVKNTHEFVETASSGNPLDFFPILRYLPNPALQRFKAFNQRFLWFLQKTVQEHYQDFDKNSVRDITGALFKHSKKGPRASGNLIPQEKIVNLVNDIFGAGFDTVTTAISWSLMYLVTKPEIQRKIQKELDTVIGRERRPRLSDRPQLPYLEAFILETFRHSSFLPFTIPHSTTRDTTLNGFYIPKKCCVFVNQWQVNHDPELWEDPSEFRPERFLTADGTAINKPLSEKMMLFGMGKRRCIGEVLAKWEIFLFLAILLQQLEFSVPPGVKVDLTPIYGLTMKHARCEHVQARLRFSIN", "experiment": "CYP inhibition in human liver microsomes"}, "CYP2C8": {"target": "CYP2C8 (Homo sapiens, UniProt P10632)", "sequence (P10632 whole entry)": "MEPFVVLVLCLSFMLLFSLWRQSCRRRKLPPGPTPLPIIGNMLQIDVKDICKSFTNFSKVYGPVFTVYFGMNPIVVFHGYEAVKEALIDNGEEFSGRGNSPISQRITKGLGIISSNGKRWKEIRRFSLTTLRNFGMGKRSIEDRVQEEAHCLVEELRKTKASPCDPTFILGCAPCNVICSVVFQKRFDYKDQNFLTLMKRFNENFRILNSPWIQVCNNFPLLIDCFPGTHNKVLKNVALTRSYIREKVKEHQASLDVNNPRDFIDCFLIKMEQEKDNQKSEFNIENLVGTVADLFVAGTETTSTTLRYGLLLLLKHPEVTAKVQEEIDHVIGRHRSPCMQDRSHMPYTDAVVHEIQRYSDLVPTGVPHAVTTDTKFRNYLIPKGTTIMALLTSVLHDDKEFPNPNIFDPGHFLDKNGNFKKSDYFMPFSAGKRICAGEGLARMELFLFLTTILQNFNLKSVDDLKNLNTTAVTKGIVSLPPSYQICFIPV", "experiment": "CYP inhibition in human liver microsomes"}},
  "note": "pIC50: −log10 of the molar value.",
  "data": [
    {"smiles": "NCCO", "note": "[Etn, monoethanolamine]", "values": [
      {"measurement": "AUClast of Etn compared to PhosE", "setting": "[1]; oral 40 mg/kg Etn", "result": 13, "unit": "fold"},
      {"measurement": "Cmax of Etn compared to PhosE", "setting": "[1]; oral 40 mg/kg Etn", "result": 32, "unit": "fold"},
      {"measurement": "time to reach peak plasma concentration", "setting": "[1]; oral Etn administration, analyte Etn", "result": 10, "unit": "min"},
      {"measurement": "expression of cell-cycle and apoptotic markers in tumor lysates", "setting": "[2]; 40 mg/kg Etn-treated mice", "result": "upregulated p21, Bax, pBcl2 c-PARP, Bim and Bid"},
      {"measurement": "p53 protein level in tumors", "setting": "[2]; 40 mg/kg Etn-treated mice", "result": "higher levels of p53 protein than untreated control tumors"},
      {"measurement": "HIF1-α protein expression in tumors", "setting": "[2]; Etn-treated tumors relative to untreated control tumors", "result": "Downregulation of HIF1-α protein expression"},
      {"measurement": "glucose and glutamine contents", "setting": "PC-3 cells", "result": "significantly reduced"},
      {"measurement": "reduction in tumor volume", "setting": "DU145", "result": "~42", "unit": "%"},
      {"measurement": "reduction in tumor weight", "setting": "DU145", "result": "~29", "unit": "%"},
      {"measurement": "reduction in HIF1-α transcript levels compared to control cells", "setting": "[3]", "result": 50, "unit": "fold"},
      {"measurement": "transcription levels of cell-cycle and apoptosis regulators", "setting": "[3]", "result": "upregulated p21, PARP1, Bax and Bid, and downregulated Bcl-2"},
      {"measurement": "reduction of survival", "setting": "C4-2B", "result": "30-52%"},
      {"measurement": "IC50", "setting": "OVCAR-5", "result": 290, "unit": "mg/L"},
      {"measurement": "IC50", "setting": "MDA-MB-468", "result": 550, "unit": "mg/L"},
      {"measurement": "IC50", "setting": "CFPAC-1", "result": 1900, "unit": "mg/L"},
      {"measurement": "immunotoxicities", "setting": "[4]", "result": "does not induce immunotoxicities"},
      {"measurement": "pIC50", "setting": "CYP2C19", "result": "< 4.00"},
      {"measurement": "pIC50", "setting": "CYP1A2", "result": "< 4.00"},
      {"measurement": "pIC50", "setting": "CYP2C8", "result": "< 4.00"}
    ]}
  ]
}
